Measured values: US7446199B2, “Compositions useful as inhibitors of protein kinases” (Vertex Pharmaceuticals Incorporated, priority 2003, dated 2008)

Assays:
Format in all cases: biochemical
c-Met = c-Met (Homo sapiens, UniProt P08581); experiment: Ki determination for the inhibition of c-Met, coupled enzyme system; conditions: 200 μM ATP, 10 μM polyGluTyr, 80 nM c-Met, 30° C.
Description: Compounds were screened for their ability to inhibit c-Met kinase activity using a standard coupled enzyme system (Fox et al., Protein Sci. 1998, 7, 2249). Reactions were carried out in a solution containing 100 mM HEPES (pH 7.5), 10 mM MgCl2, 25 mM NaCl, 300 μM NADH, 1 mM DTT, and 1.5% DMSO. Final substrate concentrations in the assay were 200 μM ATP (Sigma Chemicals, St Louis, Mo.) and 10 μM polyGluTyr (Sigma Chemical Company, St. Louis). Reactions were carried out at 30° C. and 80 nM c-Met. Final concentrations of the components of the coupled enzyme system were 2.5 mM phosphoenolpyruvate, 300 μM NADH, 30 μg/ml pyruvate kinase and 10 μg/ml lactate dehydrogenase.
An assay stock buffer solution was prepared containing all of the reagents listed above with the exception of ATP and a test compound of the present invention. The assay stock buffer solution (175 μl) was incubated in a 96 well plate with 5 μl of the test compound of the present invention at final concentrations spanning 0.006 μM to 12.5 μM at 30° C. for 10 minutes. Typically, a 12-point titration was conducted by preparing serial dilutions (from 10 mM compound stocks) with DMSO of the test compounds of the present invention in daughter plates. The reaction was initiated by the addition of 20 μl of ATP (final concentration 200 μM). Rates of reaction were obtained using a Molecular Devices Spectramax plate reader (Sunnyvale, Calif.) over 10 minutes at 30° C. The Ki values were determined from the rate data as a function of inhibitor concentration.

FLT-3 = molecular target: T1, FLT-3 (Homo sapiens, UniProt P36888); experiment: Inhibition of FLT-3, radiometric filter-binding assay; conditions: 90 μM ATP, 0.5 mg/mL pE4Y, room temperature
T1 construct: 0.02% BSA and 3 nM FLT-3
T1 sequence (P36888 27-993): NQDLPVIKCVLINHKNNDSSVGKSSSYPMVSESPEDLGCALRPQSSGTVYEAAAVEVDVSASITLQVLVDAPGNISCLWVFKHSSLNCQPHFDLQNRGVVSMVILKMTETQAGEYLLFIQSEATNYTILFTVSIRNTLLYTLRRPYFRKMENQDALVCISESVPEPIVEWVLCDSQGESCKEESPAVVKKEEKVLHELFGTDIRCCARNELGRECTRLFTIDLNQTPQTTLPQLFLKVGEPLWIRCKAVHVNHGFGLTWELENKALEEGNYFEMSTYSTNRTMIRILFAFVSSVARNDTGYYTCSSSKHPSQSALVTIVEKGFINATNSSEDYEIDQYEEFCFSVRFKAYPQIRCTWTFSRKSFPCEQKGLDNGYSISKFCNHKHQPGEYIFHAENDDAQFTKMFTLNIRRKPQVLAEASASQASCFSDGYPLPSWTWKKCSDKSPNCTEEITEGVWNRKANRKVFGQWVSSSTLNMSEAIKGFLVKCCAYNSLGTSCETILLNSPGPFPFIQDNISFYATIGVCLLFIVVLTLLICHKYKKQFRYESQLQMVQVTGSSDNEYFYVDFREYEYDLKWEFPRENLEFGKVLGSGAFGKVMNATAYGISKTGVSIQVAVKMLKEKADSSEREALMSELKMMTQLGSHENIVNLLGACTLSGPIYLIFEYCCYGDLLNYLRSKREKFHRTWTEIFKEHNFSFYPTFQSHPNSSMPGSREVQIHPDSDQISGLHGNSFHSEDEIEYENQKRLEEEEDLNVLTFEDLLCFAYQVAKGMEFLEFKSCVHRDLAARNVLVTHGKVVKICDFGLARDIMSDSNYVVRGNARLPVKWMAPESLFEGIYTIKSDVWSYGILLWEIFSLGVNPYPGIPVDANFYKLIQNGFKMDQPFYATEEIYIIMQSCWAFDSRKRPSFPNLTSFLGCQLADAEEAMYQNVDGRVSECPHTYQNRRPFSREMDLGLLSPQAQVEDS
Description: (§1) Compounds were screened for their ability to inhibit FLT-3 activity using a radiometric filter-binding assay. This assay monitors the ^33P incorporation into a substrate poly(Glu, Tyr) 4:1 (pE4Y). Reactions were carried out in a solution containing 100 mM HEPES (pH 7.5), 10 mM MgCl2, 25 mM NaCl, 1 mM DTT, 0.01% BSA and 2.5% DMSO. Final substrate concentrations in the assay were 90 μM ATP and 0.5 mg/mL pE4Y (both from Sigma Chemicals, St Louis, Mo.). The final concentration of compounds is generally between 0.01 and 5 μM. Typically, a 12-point titration was conducted by preparing serial dilutions from 10 mM DMSO stock of test compound. Reactions were carried out at room temperature.
Two assay solutions were prepared. Solution 1 contains 100 mM HEPES (pH 7.5), 10 mM MgCl2, 25 mM NaCl, 1 mg/ml pE4Y and 180 μM ATP(containing 0.3 μCi of [γ-^33P]ATP for each reaction). Solution 2 contains 100 mM HEPES (pH 7.5), 10 mM MgCl2, 25 mM NaCl, 2 mM DTT, 0.02% BSA and 3 nM FLT-3. The assay was run on a 96 well plate by mixing 50 μL each of Solution 1 and […] of the test compounds. The reaction was initiated with Solution2. After incubation for 20 minutes at room temperature, the reaction was stopped with 50 μL of 20% TCA containing 0.4 mM of ATP. All of the reaction volume was then transferred to a filter plate and washed with 5% TCA by a Harvester9600 from TOMTEC (Hamden, Conn.). The amount of ^33P incorporation into pE4y was analyzed by a Packard TopCount Microplate Scintillation Counter (Meriden, Conn.). The data was fitted using Prism software to get an IC50 or Ki.

JAK3 = molecular target: T2, JAK3 (Homo sapiens, UniProt P52333); experiment: JAK3 inhibition assay (ELISA, Poly (Glu, Ala, Tyr) coated plates); conditions: 2 mM ATP, 60 minutes at 30° C.
T2 sequence (P52333 1-1124): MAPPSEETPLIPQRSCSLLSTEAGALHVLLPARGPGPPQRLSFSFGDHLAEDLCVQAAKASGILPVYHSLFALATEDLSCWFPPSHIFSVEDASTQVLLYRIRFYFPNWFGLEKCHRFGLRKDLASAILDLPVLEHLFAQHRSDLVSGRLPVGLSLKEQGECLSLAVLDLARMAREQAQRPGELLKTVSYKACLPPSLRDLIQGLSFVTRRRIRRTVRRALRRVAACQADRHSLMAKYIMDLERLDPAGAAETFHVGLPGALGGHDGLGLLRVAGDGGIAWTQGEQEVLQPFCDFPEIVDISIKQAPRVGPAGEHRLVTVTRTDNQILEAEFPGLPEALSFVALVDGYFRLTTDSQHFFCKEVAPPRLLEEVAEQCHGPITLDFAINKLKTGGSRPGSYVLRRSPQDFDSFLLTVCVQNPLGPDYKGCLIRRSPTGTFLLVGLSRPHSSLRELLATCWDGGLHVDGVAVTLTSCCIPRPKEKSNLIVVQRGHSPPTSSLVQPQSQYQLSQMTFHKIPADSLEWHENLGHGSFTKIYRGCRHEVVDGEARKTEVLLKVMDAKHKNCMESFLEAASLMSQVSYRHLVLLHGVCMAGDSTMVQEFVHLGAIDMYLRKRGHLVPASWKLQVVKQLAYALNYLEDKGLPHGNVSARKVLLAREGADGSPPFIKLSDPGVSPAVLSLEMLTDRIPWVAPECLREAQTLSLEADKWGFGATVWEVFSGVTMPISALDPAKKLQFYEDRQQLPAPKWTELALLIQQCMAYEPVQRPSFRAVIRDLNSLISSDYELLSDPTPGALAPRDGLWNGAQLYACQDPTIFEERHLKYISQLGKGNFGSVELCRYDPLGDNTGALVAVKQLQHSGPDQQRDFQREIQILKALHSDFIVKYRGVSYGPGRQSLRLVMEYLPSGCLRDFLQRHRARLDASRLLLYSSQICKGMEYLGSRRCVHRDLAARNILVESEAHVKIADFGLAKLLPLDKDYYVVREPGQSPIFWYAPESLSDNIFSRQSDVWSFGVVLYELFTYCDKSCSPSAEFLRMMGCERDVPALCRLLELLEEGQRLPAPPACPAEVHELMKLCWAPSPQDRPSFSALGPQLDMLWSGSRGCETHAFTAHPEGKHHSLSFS
Description: Compound inhibition of JAK3 was assayed by the method described by G. R. Brown, et al., Bioorg. Med. Chem. Lett. 2000, vol. 10, pp 575-579 in the following manner. Into Maxisorb plates, previously coated at 4° C. with Poly (Glu, Ala, Tyr) 6:3:1 then washed with phosphate buffered saline 0.05% and Tween (PBST), was added 2 mM ATP, 5 mM MgCl2, and a solution of compound in DMSO. The reaction was started with JAK enzyme and the plates incubated for 60 minutes at 30° C. The plates were then washed with PBST, […] HRP-Conjugated 4G10 antibody was added, and the plate incubated for 90 minutes at 30° C. The plate was again washed with PBST, […] TMB solution is added, and the plates were incubated for another 30 minutes at 30° C. Sulfuric acid ([…] of 1M) was added to stop the reaction and the plate is read at 450 nm to obtain the optical densities for analysis to determine IC50 values.

c-KIT = molecular target: T3, c-KIT (Homo sapiens, UniProt P10721); experiment: Inhibition of c-KIT, radiometric filter-binding assay; conditions: 700 μM ATP, 0.5 mg/mL pE4Y, room temperature
T3 construct: 0.02% BSA and 25 nM c-KIT
Description: as §1, with “Compounds are screened for” for “Compounds were screened for”, “to inhibit c-KIT activity using” for “to inhibit FLT-3 activity using”, “(pE4Y). Reactions are carried out” for “(pE4Y). Reactions were carried out”, “assay were 700 μM ATP” for “assay were 90 μM ATP”, “12-point titration is conducted by” for “12-point titration was conducted by”
Two assay solutions are prepared. Solution 1 contains 100 mM HEPES (pH 7.5), 10 mM MgCl2, 25 mM NaCl, 1 mg/ml pE4Y and 1.4 mM ATP(containing 0.5 μCi of [γ-^33P]ATP for each reaction). Solution 2 contains 100 mM HEPES (pH 7.5), 10 mM MgCl2, 25 mM NaCl, 2 mM DTT, 0.02% BSA and 25 nM c-KIT. The assay is run on a 96 well plate by mixing 33 μL of Solution1 and 1.65 μL of the test compounds. The reaction is initiated with 33 μL of Solution2. After incubation for 20 minutes at room temperature, the reaction was stopped with 50 μL of 10% TCA containing 0.2 mM of ATP. All of the reaction volume is then transferred to a filter plate and washed with 5% TCA by a Harvester9600 from TOMTEC (Hamden, Conn.). The amount of ^33P incorporation into pE4y is analyzed by a Packard TopCount Microplate Scintillation Counter (Meriden, Conn.). The data is fitted using Prism software to get an IC50 or Ki.

T3 sequence (P10721 26-976): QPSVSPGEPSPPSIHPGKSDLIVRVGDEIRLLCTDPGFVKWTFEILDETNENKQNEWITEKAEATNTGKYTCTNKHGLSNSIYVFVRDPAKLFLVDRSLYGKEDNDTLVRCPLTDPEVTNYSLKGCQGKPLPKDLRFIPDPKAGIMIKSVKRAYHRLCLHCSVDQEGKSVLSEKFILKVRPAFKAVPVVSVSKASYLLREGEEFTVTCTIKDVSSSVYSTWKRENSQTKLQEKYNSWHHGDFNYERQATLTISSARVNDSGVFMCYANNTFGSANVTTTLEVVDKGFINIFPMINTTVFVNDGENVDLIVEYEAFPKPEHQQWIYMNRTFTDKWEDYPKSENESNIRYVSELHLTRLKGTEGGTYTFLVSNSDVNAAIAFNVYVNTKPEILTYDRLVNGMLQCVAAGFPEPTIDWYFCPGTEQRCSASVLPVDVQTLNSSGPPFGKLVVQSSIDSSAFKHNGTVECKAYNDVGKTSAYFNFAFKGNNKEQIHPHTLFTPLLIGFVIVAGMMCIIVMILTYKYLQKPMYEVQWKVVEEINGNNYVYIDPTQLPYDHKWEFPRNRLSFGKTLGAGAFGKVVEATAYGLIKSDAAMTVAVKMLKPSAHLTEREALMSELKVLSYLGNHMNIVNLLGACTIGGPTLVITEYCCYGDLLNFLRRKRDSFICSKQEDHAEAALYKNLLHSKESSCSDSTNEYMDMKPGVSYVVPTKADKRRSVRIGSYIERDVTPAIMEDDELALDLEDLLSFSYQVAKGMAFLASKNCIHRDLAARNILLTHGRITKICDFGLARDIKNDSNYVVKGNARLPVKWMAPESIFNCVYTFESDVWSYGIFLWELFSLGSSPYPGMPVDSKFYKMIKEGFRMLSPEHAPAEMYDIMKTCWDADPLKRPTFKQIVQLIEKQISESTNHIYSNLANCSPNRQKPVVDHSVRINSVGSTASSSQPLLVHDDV
Chain of c-Met (P08581 25-1390): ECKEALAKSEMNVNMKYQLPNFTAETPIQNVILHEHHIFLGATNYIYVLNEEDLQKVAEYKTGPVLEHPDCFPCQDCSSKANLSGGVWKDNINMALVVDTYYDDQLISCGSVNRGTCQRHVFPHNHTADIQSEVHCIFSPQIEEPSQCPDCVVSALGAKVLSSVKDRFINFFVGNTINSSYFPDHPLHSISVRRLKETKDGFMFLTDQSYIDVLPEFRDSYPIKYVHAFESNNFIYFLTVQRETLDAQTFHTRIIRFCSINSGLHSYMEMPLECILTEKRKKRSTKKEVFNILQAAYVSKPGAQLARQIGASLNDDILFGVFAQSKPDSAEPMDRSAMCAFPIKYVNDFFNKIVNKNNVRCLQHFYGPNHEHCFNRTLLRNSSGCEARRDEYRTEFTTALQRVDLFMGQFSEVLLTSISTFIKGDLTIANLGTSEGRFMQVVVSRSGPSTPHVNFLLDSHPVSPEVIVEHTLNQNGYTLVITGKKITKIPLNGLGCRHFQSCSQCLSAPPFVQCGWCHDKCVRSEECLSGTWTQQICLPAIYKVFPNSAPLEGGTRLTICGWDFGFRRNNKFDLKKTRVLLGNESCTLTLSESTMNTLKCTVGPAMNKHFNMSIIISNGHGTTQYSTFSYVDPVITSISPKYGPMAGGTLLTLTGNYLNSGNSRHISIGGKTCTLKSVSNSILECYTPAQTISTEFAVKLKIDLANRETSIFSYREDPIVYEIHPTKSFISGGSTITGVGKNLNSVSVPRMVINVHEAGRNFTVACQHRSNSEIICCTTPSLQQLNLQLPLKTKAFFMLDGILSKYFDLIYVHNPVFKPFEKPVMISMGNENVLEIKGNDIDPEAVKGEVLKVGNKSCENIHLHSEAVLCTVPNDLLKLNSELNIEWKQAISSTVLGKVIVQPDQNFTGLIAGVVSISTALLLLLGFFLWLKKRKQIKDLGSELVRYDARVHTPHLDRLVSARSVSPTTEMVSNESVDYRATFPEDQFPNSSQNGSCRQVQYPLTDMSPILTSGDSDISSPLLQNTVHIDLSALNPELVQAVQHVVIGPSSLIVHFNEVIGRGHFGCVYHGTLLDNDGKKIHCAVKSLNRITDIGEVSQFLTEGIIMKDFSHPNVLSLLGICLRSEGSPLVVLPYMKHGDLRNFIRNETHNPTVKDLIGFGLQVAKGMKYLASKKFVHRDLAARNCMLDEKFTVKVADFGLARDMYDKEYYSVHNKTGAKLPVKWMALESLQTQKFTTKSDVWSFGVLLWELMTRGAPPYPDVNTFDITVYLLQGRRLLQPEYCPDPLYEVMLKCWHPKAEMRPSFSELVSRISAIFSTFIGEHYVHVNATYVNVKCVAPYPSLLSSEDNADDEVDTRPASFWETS

Row | SMILES | Ki (c-Met) [nM] | Ki (FLT-3) [nM] | Ki (JAK3) [nM] | Ki (c-KIT) [nM]
1 | CN(C)Cc1cnc2[nH]cc(-c3oncc3-c3cccc(F)c3F)c2c1 [Compound 54, {3-[4-(2,3-Difluoro-phenyl)-isoxazol-5-yl]-1H-pyrrolo[2,3-b]pyridin-5-ylmethyl}-dimethyl-amine] | 1000 to 12500 | 1000 to 12500 |  | 
2 | Fc1cccc(-n2cnnc2-c2c[nH]c3ncc(-c4ccc(N5CCC(N6CCCC6)CC5)nc4)cc23)c1F [Compound 123, 5′-{3-[4-(2,3-Difluoro-phenyl)-4H-[1,2,4]triazol-3-yl]-1H-pyrrolo[2,3-b]pyridin-5-yl}-4-pyrrolidin-1-yl-3,4,5,6-tetrahydro-2H-[1,2′]bipyridinyl] | < 200 |  | 1000 to 12500 | 200 to 1000
3 | Fc1cccc(-n2cnnc2-c2c[nH]c3ncc(-c4ccc(NCC5CCCO5)nc4)cc23)c1F (centres unmarked) [Compound 124, (5-{3-[4-(2,3-Difluoro-phenyl)-4H-[1,2,4]triazol-3-yl]-1H-pyrrolo[2,3-b]pyridin-5-yl}-pyridin-2-yl)-(tetrahydro-furan-2-ylmethyl)-amine] | < 200 |  | 200 to 1000 | 200 to 1000
4 | CN(C)c1ccc(-c2cnc3[nH]cc(-c4nncn4-c4cccc(F)c4F)c3c2)cc1[N+](=O)[O-] [Compound 131, (4-{3-[4-(2,3-Difluoro-phenyl)-4H-[1,2,4]triazol-3-yl]-1H-pyrrolo[2,3-b]pyridin-5-yl}-2-nitro-phenyl)-dimethyl-amine] | < 200 |  | 1000 to 12500 | < 200
5 | C[C@@H]1CN(c2ccc(-c3cnc4[nH]cc(-c5nncn5-c5cccc(F)c5F)c4c3)cn2)C[C@H](C)N1 [Compound 122, 3-[4-(2,3-Difluoro-phenyl)-4H-[1,2,4]triazol-3-yl]-5-[6-(3,5-dimethyl-piperazin-1-yl)-pyridin-3-yl]-1H-pyrrolo [2,3-b]pyridine] | < 200 |  | 1000 to 12500 | 200 to 1000
6 | CN(C)c1ccc(-c2cnc3[nH]cc(-c4nncn4-c4cccc(F)c4F)c3c2)cc1N [Compound 130, 4-{3-[4-(2,3-Difluoro-phenyl)-4H-[1,2,4]triazol-3-yl]-1H-pyrrolo[2,3-b]pyridin-5-yl}-N^1,N^1-dimethyl-benzene-1,2-diamine] | < 200 |  | 200 to 1000 | < 200
